According to PubChem BioAssay AID2060336 (Molecular Pharmacology Branch, DTP, NCI, 2025):
Values joined by “and” are separate entries in the source; they are usually repeats but may differ in a detail not shown here. Equal values may be shown once. Each block holds one compound with its values, some of them ahead of it.

Test system: 958767-090-R-J1-PDC spheroid growth
Assay: Anticancer human tumor 958767-090-R-J1-PDC patient-derived head and neck squamous carcinoma cell line growth inhibition [IpAb]
Settings: spheroids with HUVEC and MSC; for viability, T/C: stronger effect = lower value
Procedure, shortened: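 Combinations with ipatasertib or abemaciclib were tested on tumour spheroids holding HUVEC (25%) and MSC (15%) alongside 60% malignant cells. Top concentration was at or near clinical Cmax (10 microM if undefined), descending in half-log steps.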

[1] = curve of first compound, second compound 0.1 µM
[2] = curve of first compound, second compound 0.316 µM
[3] = curve of first compound, second compound 1 µM
[4] = second compound 0.1 µM, first compound 0.0316 µM
[5] = second compound 0.1 µM, first compound 0.1 µM
[6] = second compound 0.316 µM, first compound 0.0316 µM
[7] = second compound 0.316 µM, first compound 0.1 µM
[8] = second compound 1 µM, first compound 0.0316 µM
[9] = second compound 1 µM, first compound 0.1 µM
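Note: spheroids exposed to agents for 7 days.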
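Throughout, for viability, T/C: 100% = DMSO vehicle control wells.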

Compound: Cc1nc(NC(=O)N2CCCC2C(N)=O)sc1-c1ccnc(C(C)(C)C(F)(F)F)c1 (configuration not stated) + CC(C)NCC(C(=O)N1CCN(c2ncnc3c2C(C)CC3O)CC1)c1ccc(Cl)cc1
IC50 [1]: 136 nM | IC50 [2]: 63.5 nM | IC50 [3]: < 31.6 nM | IC50 (curve of first compound, second compound 3.16 µM): < 31.6 nM | IC50 (curve of first compound, second compound 10 µM): < 31.6 nM | viability, T/C [4]: 72.7% | viability, T/C [5]: 49.6% | viability, T/C (second compound 0.1 µM, first compound 0.316 µM): 38.1% | viability, T/C (second compound 0.1 µM, first compound 1 µM): 34.2% | viability, T/C (second compound 0.1 µM, first compound 3.16 µM): 20.7% | viability, T/C (second compound 0.1 µM, first compound 10 µM): 12.2% | viability, T/C [6]: 54.4% | viability, T/C [7]: 49.1% | viability, T/C (second compound 0.316 µM, first compound 0.316 µM): 32.3% | viability, T/C (second compound 0.316 µM, first compound 1 µM): 26.7% | viability, T/C (second compound 0.316 µM, first compound 3.16 µM): 16.2% | viability, T/C (second compound 0.316 µM, first compound 10 µM): 11.1% | viability, T/C [8]: 46.6% | viability, T/C [9]: 32.7% | viability, T/C (second compound 1 µM, first compound 0.316 µM): 30.9% | viability, T/C (second compound 1 µM, first compound 1 µM): 20.9% | viability, T/C (second compound 1 µM, first compound 3.16 µM): 15.6% | viability, T/C (second compound 1 µM, first compound 10 µM): 9.52% | viability, T/C (second compound 3.16 µM, first compound 0.0316 µM): 38.4% | viability, T/C (second compound 3.16 µM, first compound 0.1 µM): 28.4% | viability, T/C (second compound 3.16 µM, first compound 0.316 µM): 24.2% | viability, T/C (second compound 3.16 µM, first compound 1 µM): 18.3% | viability, T/C (second compound 3.16 µM, first compound 3.16 µM): 14.4% | viability, T/C (second compound 3.16 µM, first compound 10 µM): 7.8% | viability, T/C (second compound 10 µM, first compound 0.0316 µM): 31.6% | viability, T/C (second compound 10 µM, first compound 0.1 µM): 24.6% | viability, T/C (second compound 10 µM, first compound 0.316 µM): 16.5% | viability, T/C (second compound 10 µM, first compound 1 µM): 10.8% | viability, T/C (second compound 10 µM, first compound 3.16 µM): 9.96% | viability, T/C (second compound 10 µM, first compound 10 µM): 5.52%

Compound: Cn1ncnc1[C@H]1c2n[nH]c(=O)c3cc(F)cc(c23)N[C@@H]1c1ccc(F)cc1 + CCN1CCN(Cc2ccc(Nc3ncc(F)c(-c4cc(F)c5nc(C)n(C(C)C)c5c4)n3)nc2)CC1
IC50 (curve of first compound, second compound 0.01 µM): > 100 nM | IC50 (curve of first compound, second compound 0.0316 µM): > 100 nM | IC50 [1]: > 100 nM | IC50 [2]: 32.2 nM | IC50 [3]: > 100 nM | viability, T/C (second compound 0.01 µM, first compound 0.000316 µM): 90.1% | viability, T/C (second compound 0.01 µM, first compound 0.001 µM): 93.3% | viability, T/C (second compound 0.01 µM, first compound 0.00316 µM): 66.3% | viability, T/C (second compound 0.01 µM, first compound 0.01 µM): 84% | viability, T/C (second compound 0.01 µM, first compound 0.0316 µM): 75% | viability, T/C (second compound 0.01 µM, first compound 0.1 µM): 66% | viability, T/C (second compound 0.0316 µM, first compound 0.000316 µM): 83.6% | viability, T/C (second compound 0.0316 µM, first compound 0.001 µM): 75.1% | viability, T/C (second compound 0.0316 µM, first compound 0.00316 µM): 67.8% | viability, T/C (second compound 0.0316 µM, first compound 0.01 µM): 46.2% | viability, T/C (second compound 0.0316 µM, first compound 0.0316 µM): 52.8% | viability, T/C (second compound 0.0316 µM, first compound 0.1 µM): 67.4% | viability, T/C (second compound 0.1 µM, first compound 0.000316 µM): 68.8% | viability, T/C (second compound 0.1 µM, first compound 0.001 µM): 64.6% | viability, T/C (second compound 0.1 µM, first compound 0.00316 µM): 60.8% | viability, T/C (second compound 0.1 µM, first compound 0.01 µM): 56.6% | viability, T/C [4]: 50.2% | viability, T/C [5]: 59.4% | viability, T/C (second compound 0.316 µM, first compound 0.000316 µM): 59.2% | viability, T/C (second compound 0.316 µM, first compound 0.001 µM): 53.8% | viability, T/C (second compound 0.316 µM, first compound 0.00316 µM): 49.3% | viability, T/C (second compound 0.316 µM, first compound 0.01 µM): 54% | viability, T/C [6]: 56.8% | viability, T/C [7]: 43.4% | viability, T/C (second compound 1 µM, first compound 0.000316 µM): 70.8% | viability, T/C (second compound 1 µM, first compound 0.001 µM): 73.7% | viability, T/C (second compound 1 µM, first compound 0.00316 µM): 70.5% | viability, T/C (second compound 1 µM, first compound 0.01 µM): 60.2% | viability, T/C [8]: 56.6% | viability, T/C [9]: 58.2%

IC50 (curve of compound): 195 nM and 344 nM
Compound: C=CCn1c(=O)c2cnc(Nc3ccc(N4CCN(C)CC4)cc3)nc2n1-c1cccc(C(C)(C)O)n1
viability, T/C (compound 0.0316 µM): 86.2% and 89.5% | viability, T/C (compound 0.1 µM): 72.7% and 72.8% | viability, T/C (compound 0.316 µM): 33.4% and 47.7% | viability, T/C (compound 1 µM): 27.7% and 37.4% | viability, T/C (compound 3.16 µM): 25% and 28.7% | viability, T/C (compound 10 µM): 21.1% and 20.1%
